# Experimental data as given in US4030886A, “Saturation analysis” (The Radiochemical Centre Limited, priority 1973, dated 1977).
# “And” between values parts separate entries of the source, which are not always exact repeats. Equal entries are not always repeated.
# Key:
# [1] = system: antiserum raised in rabbits against estriol-6-CMO-BSA; assay: Assay for estriol using 2-(methylseleno)-ethylamine-Se75 conjugate of estriol-6CMO; type: binding, rabbit; conditions: 300 pg label, antiserum 1:200
# Procedure: Into each assay tube was dispensed 0.1M phosphate buffer containing 5% human serum (pH 7.0; 200 μl), antiserum raised in rabbits against estriol-6-CMO-BSA and diluted 1 : 200 in 0.1M phosphate buffer containing 5% human serum (200 μl), and 2-(methylseleno)-Ethylamine-Se 75 conjugate of estriol-6-CMO (300 pg; 18 Ci/m mol).
# [2] = biological target: T1, transcortin (charcoal treated rabbit serum) (Oryctolagus cuniculus, UniProt P23775); assay: Assay for cortisol using 2-methylseleno-1-dehydro-cortisol-21-acetate-Se75; type: binding; conditions: for Counts - BKG in 300 sec: 2.5 ng label
# T1 construct: charcoal treated rabbit serum; from tissue; host or cells: rabbit serum, charcoal treated
# T1 sequence (P23775 1-383): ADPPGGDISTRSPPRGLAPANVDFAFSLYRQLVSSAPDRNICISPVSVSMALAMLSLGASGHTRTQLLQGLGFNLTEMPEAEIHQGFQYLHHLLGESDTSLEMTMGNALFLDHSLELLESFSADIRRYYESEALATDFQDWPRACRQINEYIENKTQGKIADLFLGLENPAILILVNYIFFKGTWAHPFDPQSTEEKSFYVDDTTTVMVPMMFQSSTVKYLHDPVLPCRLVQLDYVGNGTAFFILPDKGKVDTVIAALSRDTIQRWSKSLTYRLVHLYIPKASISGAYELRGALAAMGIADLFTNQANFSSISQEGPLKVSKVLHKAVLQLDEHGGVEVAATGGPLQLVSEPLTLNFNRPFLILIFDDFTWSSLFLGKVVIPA
# Procedure: (§1) Into each glass assay tube was dispensed glycine buffer containing 1% sodium azide (pH 9.0; 5.5 ml), charcoal treated rabbit serum (50 μl), bis-2,2'-(21-acetoxy-1-dehydrocortisol)-diselenide-Se 75 (2.3 ng, sp. activity ca 6 Ci/m atom), and Sephadex G25 (1 g). […] The tubes were capped and rotated at room temperature for 1 hour using a blood cell suspension mixer. After this time an aliquot (1 ml) of the supernatant liquid was withdrawn from each tube and counted for 300 seconds using an NE8311 gamma counter.
# Into each glass assay tube was dispensed 0.05M phosphate buffer containing sodium azide 1% (pH 7.4; 6 ml), charcoal treated rabbit serum (50 μl), 2-methylseleno-1-dehydrocortisol-21-acetate-Se75) (2.5 ng; sp. activity ca 3 Ci/m atom), and Sephadex G25 (1 g).
# The assay procedure was identical with that described above.
# [3] = system: Antisera raised in rabbits to testosterone 3-carboxymethyloxime-BSA; assay: Radioimmunoassay for testosterone, antiserum dilution curve; type: binding, rabbit; conditions: for % Bound: 25pg label per assay tube
# Procedure: Antisera were raised in rabbits to testosterone 3-carboxymethyloxime-BSA.
# SE75 labelled 2-methylseleno-1-dehydrotestosterone (specific activity 15-20 Ci/mmol) was prepared by base catalysed hydrolysis of 2-methylseleno 1-dehydrotestosterone acetate which is described in our prior patent specification.
# Antiserum dilution curves were set up in the usual way using antiserum and labelled testosterone as described above.
# Typical figures for the antiserum dilution curves when 25pg labelled testosterone was used per assay tube are: […]
# [4] = system: antiserum raised to digoxin; assay: Dilution curve for 3-methylselenodigoxigenin; type: binding; conditions: for Mean Count: 200 μl supernatant
# Procedure: An antiserum dilution curve for 3-methylselenodigoxigenin-Se 75 (specific activity 16 Ci/m mol) in buffered saline (0.15M NaCl, 0.05M KH2 PO4, 0.1% Na N3, and 0.1% BSA) was made up at a concentration of 0.0228 n mol/ml. Dilutions of antiserum raised to digoxin were prepared in assay buffer at 1/50, 1/100, 1/200, 1/400, 1/500, 1/800, 1/1000. Tubes were set up in duplicate for total activity, blanks, and antiserum dilutions as follows: total activity, 50 μl ^75 Se compound and 250 μl assay buffers; blanks, 50 μl ^75 Se compound and 150 μl assay buffer; antiserum dilutions, 50 μl ^75 Se compound, 100 μl buffer and 50 μl antiserum. The tubes were incubated for 30 minutes after which 100 μl of charcoal (0.65 g Norit OL in 50 ml assay buffer + 1 gram BSA) was added to each tube except the totals. After 10 minutes incubation the tubes were centrifuged and a 200 μl sample of the supernatant was counted.
# [5] = biological target: T2, Transcortin from rabbit serum (Oryctolagus cuniculus, UniProt P23775); assay: CPB assay for cortisol using Se-75 labelled bis-2,2'-(1-dehydrocorticosterone)-diselenide; type: binding
# T2 construct: Transcortin from rabbit serum; from tissue; host or cells: rabbit serum
# T2 sequence (P23775 1-383): T1 sequence (P23775 1-383)
# Procedure: as §1
# Se-75 labelled bis-2,2'-(1-dehydrocorticosterone)-diselenide was prepared by base hydrolysis of Se75-labelled bis-2,2'-(21-acetoxy-1-dehydrocorticosterone) diselenide which is described in our U.S. Ser. No. 426,695.
# Using this radiolabelled material an assay for cortisol was set up as described in Example 1. Transcortin from rabbit serum was used as the source of binding protein and Sephadex G25 was used to separate protein free and bound material.
# Typical results obtained using standard solutions of unlabelled cortisol to displace the labelled Δ^1 -corticosterone diselenide are: […]
# [6] = biological target: T1, transcortin (charcoal treated rabbit serum); assay: Assay for cortisol using Se-75 labelled bis-2,2'-(21-acetoxy-1-dehydrocortisol)-diselenide (competitive protein binding, Sephadex G25 separation); conditions: 2.3 ng label, 1 ml supernatant
# Procedure: as §1
# [7] = biological target: T1, transcortin (charcoal treated rabbit serum); assay: Assay for cortisol - the use of β-mercaptoethanol in situ, tubes stored before use; type: binding
# Procedure: as §1
# Bis-2,2'-(21-acetoxy-1-dehydrocortisol)-diselenide-Se75 (100ng) in ethanol (10 ul) was added with stirring to a solution of β-mercaptoethanol (20 μl) in 0.05M phosphate buffer (pH 7.4; 1 ml). The mixture was left at room temperature for 20 minutes and then was added to a solution of 0.05M phosphate buffer (pH 7.4; 480 ml) containing sodium azide (1%) and charcoal treated rabbit serum (2 ml). After thorough mixing this solution was dispensed (in 6 ml aliquots) into glass assay tubes each containing Sephadex G25 (1 g). The tubes were capped and stored at room temperature until required, when the assay was then carried out as described above.
smiles,measurement,setting,value
C[75Se]CCNC(=O)CON=C1C[C@@H]2[C@H](CC[C@]3(C)[C@@H](O)[C@H](O)C[C@@H]23)c2ccc(O)cc21 [2-(methylseleno)-ethylamine - Se 75 conjugate of estriol-6-carboxymethyloxime],% of total counts bound minus blanks,[1]; 0 ng estriol added,45.9%
same,% of total counts bound minus blanks,[1]; 1.5 ng estriol added,37.5%
same,% of total counts bound minus blanks,[1]; 3.1 ng estriol added,35.6%
same,% of total counts bound minus blanks,[1]; 6.3 ng estriol added,32.0%
same,% of total counts bound minus blanks,[1]; 12.5 ng estriol added,29.2%
same,% of total counts bound minus blanks,[1]; 25 ng estriol added,24.7%
C[75Se]C1=C[C@@]2(C)C(=CC1=O)CC[C@@H]1[C@@H]2[C@@H](O)C[C@@]2(C)[C@H]1CC[C@]2(O)C(=O)COC(C)=O [2-methylseleno-1-dehydrocortisol-21-acetate-Se75],Counts - BKG in 300 sec,[2]; cortisol standard 0 μg/100 ml,37447 and 37551
same,Counts - BKG in 300 sec,[2]; cortisol standard 2 μg/100 ml,36495 and 36981
same,Counts - BKG in 300 sec,[2]; cortisol standard 4 μg/100 ml,35381 and 34565
same,Counts - BKG in 300 sec,[2]; cortisol standard 8 μg/100 ml,31090 and 32353
same,Counts - BKG in 300 sec,[2]; cortisol standard 16 μg/100 ml,28011 and 28180
same,Counts - BKG in 300 sec,[2]; cortisol standard 32 μg/100 ml,24135 and 24340
same,Counts - BKG in 300 sec,[2]; cortisol standard 64 μg/100 ml,21601 and 21777
same,dose-response curve of the cortisol assay,[2]; methylseleno- compared with the diseleno- derivative as label,steeper dose-response curve
C[75Se]C1=C[C@@]2(C)C(=CC1=O)CC[C@H]1[C@@H]3CC[C@H](O)[C@@]3(C)CC[C@@H]12 [2-methylseleno-1-dehydrotestosterone],antiserum dilution curves compared with tritiated testosterone as label,[3],identical to those obtained when tritiated testosterone was used as label
same,% Bound,[3]; antiserum dilution 1/10^2,85%
same,% Bound,[3]; antiserum dilution 1/10^3,80%
same,% Bound,[3]; antiserum dilution 1/10^4,45%
same,% Bound,[3]; antiserum dilution 1/10^5,18%
same,% Bound,[3]; antiserum dilution 1/10^6,13%
C[75Se]C1CC[C@@]2(C)[C@H](CC[C@@H]3[C@@H]2C[C@@H](O)[C@]2(C)[C@@H](C4=CC(=O)OC4)CC[C@]32O)C1 (some centres unmarked) [3-methylselenodigoxigenin-Se 75],% of Total Counts Bound,[4]; antiserum 1/50 dilution,97.0%
same,Mean Count,[4]; antiserum 1/50 dilution,20750
same,% of Total Counts Bound,[4]; antiserum 1/100 dilution,80.6%
same,Mean Count,[4]; antiserum 1/100 dilution,17224
same,% of Total Counts Bound,[4]; antiserum 1/200 dilution,44.3%
same,Mean Count,[4]; antiserum 1/200 dilution,9489
same,% of Total Counts Bound,[4]; antiserum 1/400 dilution,26.8%
same,Mean Count,[4]; antiserum 1/400 dilution,5744
same,% of Total Counts Bound,[4]; antiserum 1/500 dilution,21.8%
same,Mean Count,[4]; antiserum 1/500 dilution,4659
same,% of Total Counts Bound,[4]; antiserum 1/800 dilution,15.3%
same,Mean Count,[4]; antiserum 1/800 dilution,3277
same,% of Total Counts Bound,[4]; antiserum 1/1000 dilution,12.2%
same,Mean Count,[4]; antiserum 1/1000 dilution,2602
"C[C@]12C[C@H](O)[C@H]3[C@@H](CCC4=CC(=O)C([75Se][75Se]C5=C[C@@]6(C)C(=CC5=O)CC[C@@H]5[C@@H]6[C@@H](O)C[C@]6(C)[C@@H](C(=O)CO)CC[C@@H]56)=C[C@@]43C)[C@@H]1CC[C@@H]2C(=O)CO [bis-2,2'-(1-dehydrocorticosterone)-diselenide]",Counts - Bkgd,[5]; cortisol standard 2 μg/100 ml,24700
same,Counts - Bkgd,[5]; cortisol standard 4 μg/100 ml,24100
same,Counts - Bkgd,[5]; cortisol standard 8 μg/100 ml,22800
same,Counts - Bkgd,[5]; cortisol standard 16 μg/100 ml,21800
same,Counts - Bkgd,[5]; cortisol standard 32 μg/100 ml,21200
same,Counts - Bkgd,[5]; cortisol standard 64 μg/100 ml,20700
"CC(=O)OCC(=O)[C@@]1(O)CC[C@H]2[C@@H]3CCC4=CC(=O)C([75Se][75Se]C5=C[C@@]6(C)C(=CC5=O)CC[C@@H]5[C@@H]6[C@@H](O)C[C@@]6(C)[C@H]5CC[C@]6(O)C(=O)COC(C)=O)=C[C@]4(C)[C@H]3[C@@H](O)C[C@@]21C [bis-2,2'-(21-acetoxy-1-dehydrocortisol)-diselenide-Se 75]",Counts - Rkgd in 300 sec,[6]; cortisol standard 0 μg/100 ml,34672 and 33573
same,Counts - Rkgd in 300 sec,[6]; cortisol standard 2 μg/100 ml,31116 and 32296
same,Counts - Rkgd in 300 sec,[6]; cortisol standard 4 μg/100 ml,31129 and 31389
same,Counts - Rkgd in 300 sec,[6]; cortisol standard 8 μg/100 ml,29987 and 30954
same,Counts - Rkgd in 300 sec,[6]; cortisol standard 16 μg/100 ml,29141 and 29356
same,Counts - Rkgd in 300 sec,[6]; cortisol standard 32 μg/100 ml,26842 and 25739
same,Counts - Rkgd in 300 sec,[6]; cortisol standard 64 μg/100 ml,23746 and 25895
same,Counts per 100 seconds (corrected for background),"[7]; cortisol standard 2 μg/100 ml, storage time 1 day",12814 and 13112
same,Counts per 100 seconds (corrected for background),"[7]; cortisol standard 2 μg/100 ml, storage time 28 days",13007 and 12356
same,Counts per 100 seconds (corrected for background),"[7]; cortisol standard 4 μg/100 ml, storage time 1 day",13012
same,Counts per 100 seconds (corrected for background),"[7]; cortisol standard 4 μg/100 ml, storage time 28 days",11884
same,Counts per 100 seconds (corrected for background),"[7]; cortisol standard 8 μg/100 ml, storage time 1 day",12754 and 12709
same,Counts per 100 seconds (corrected for background),"[7]; cortisol standard 8 μg/100 ml, storage time 28 days",11486 and 11624
same,Counts per 100 seconds (corrected for background),"[7]; cortisol standard 16 μg/100 ml, storage time 1 day",11980 and 11825
same,Counts per 100 seconds (corrected for background),"[7]; cortisol standard 16 μg/100 ml, storage time 28 days",10930 and 10467
same,Counts per 100 seconds (corrected for background),"[7]; cortisol standard 32 μg/100 ml, storage time 1 day",10988 and 10876
same,Counts per 100 seconds (corrected for background),"[7]; cortisol standard 32 μg/100 ml, storage time 28 days",10078 and 10365
same,Counts per 100 seconds (corrected for background),"[7]; cortisol standard 64 μg/100 ml, storage time 1 day",9636
same,Counts per 100 seconds (corrected for background),"[7]; cortisol standard 64 μg/100 ml, storage time 28 days",9967
